Structures are written as SMILES. Values after ≈ are worked out from the molar mass of the structure shown.

For the series the following is noted: buffer; pH 7.4; 200.0 µM.
For `CC(C)(C)NC(=O)NCc1ccco1`, the solubility (kinetic) (as a rule, solubility judged after dilution from a stock solution rather than from solid) was greater than 29.4 µg/mL.
In the case of `CN(CCS(=O)(=O)c1ccc(Cl)cc1)Cc1cccnc1`, the kinetic solubility is greater than 48.7 µg/mL.
In turn, `CC(c1ccccc1)c1nnc(N)s1` (configuration not stated) returned a solubility (kinetic) greater than 30.8 µg/mL.
The same measure for `O=C(NCc1ccc(Cl)cc1)c1ccc2ccccc2n1`: 3.4 µg/mL (≈ 11.5 µM).
With `CCOc1c(Cl)cc(CNCc2ccccn2)cc1OC.Cl` the figure was 45.2 µg/mL; with `OC1CCCN(CC(O)c2ccccc2)C1` (configuration not stated), 25 µg/mL (≈ 113 µM).
The same measure for `Cc1c(Cl)cnc(NC(=O)COC(=O)[C@@H](NC(=O)c2ccco2)C(C)C)c1Cl`: greater than 64.2 µg/mL; for `COc1ccc(Nc2nc(NCC3CCCO3)nc(N)c2[N+](=O)[O-])cc1` (configuration not stated): 1.7 µg/mL (≈ 4.72 µM).
`CCOc1ccc(N(C)Cc2cc(=O)oc3ccc(OCC)cc23)cc1` had a solubility (kinetic) of 2.3 µg/mL (≈ 6.51 µM).
The same measure for `COc1ccccc1NS(=O)(=O)c1ccc(C(=O)NCC(c2cccs2)N2CCOCC2)cc1` (configuration not stated): 20 µg/mL (≈ 39.9 µM).
The same measure for `Cc1cccc2nc3ccccc3nc12`: 0.7 µg/mL (≈ 3.6 µM); for `NC(=O)CN1C(=O)C(=O)N(Cc2ccccc2Cl)C1=O`: greater than 44.4 µg/mL.
With `O=C(O)CCC(=NNC(=O)c1cccc(S(=O)(=O)N2CCCCC2)c1)c1ccccc1` the figure was greater than 66.5 µg/mL; with `Nc1c(Cl)cnc(C(Cl)(Cl)Cl)c1Cl`, 19.6 µg/mL (≈ 69.9 µM).
In turn, `O=C(CN1C(=O)NC2(CCCC2)C1=O)Nc1cc(C(F)(F)F)ccc1N1CCOCC1` had a kinetic solubility of 5.2 µg/mL (≈ 11.8 µM).
With `CC1(C)CC(=O)C=C(N2CCOCC2)C1` the figure was greater than 31.4 µg/mL; with `O=C(C(=O)N1CCN(c2ccccc2)CC1)c1c[nH]c2ccccc12`, 2 µg/mL (≈ 6 µM).
With `COc1cccc(C(=O)NCCNC(=O)c2cnccn2)c1` the figure was 30.9 µg/mL (≈ 103 µM); with `Cc1cccc(NC(=O)c2ccc3nccnc3c2)c1C`, 37.1 µg/mL (≈ 134 µM); with `Cc1ccc2oc(C(=O)N(Cc3ccccc3)C3CCS(=O)(=O)C3)c(C)c2c1` (configuration not stated), 1.6 µg/mL (≈ 4.03 µM).
The same measure for `O=C(COC(=O)/C=C/c1ccccc1[N+](=O)[O-])NC1CC1`: greater than 43.5 µg/mL; for `CC1(C)Cc2nc(-c3ccccc3)nc(SCC(O)CO)c2CO1` (configuration not stated): 51.7 µg/mL (≈ 149 µM).
`Cc1ccc(C)c2c1N(Cc1ccccc1)C(=O)C21OCCO1` registered a kinetic solubility of less than 0.7 µg/mL.
Take `N#Cc1cccc(C#N)c1NCC1CCCO1` (configuration not stated): the solubility (kinetic) was greater than 34.1 µg/mL.
The same measure for `O=C(OCC(=O)C12CC3CC(CC(C3)C1)C2)c1ccccn1`: greater than 44.9 µg/mL; for `O=C(CN1CCN(c2ccc(O)cc2)CC1)Nc1ccc(S(=O)(=O)N2CCCC2)cc1`: 44.6 µg/mL (≈ 100 µM); for `CCS(=O)(=O)N1CCN(CC(=O)NC2CCCCC2)CC1.Cl`: greater than 53.1 µg/mL.
The same measure for `Cc1nc(NC(=O)CSc2nncs2)c(Cl)cc1Cl`: greater than 50.3 µg/mL; for `O=C(CCC(=O)N1CCCC1)Nc1ccc(Cl)c(Cl)c1`: 5.6 µg/mL (≈ 17.8 µM).
With `CC(=O)Nc1ccc(SCc2csc(C)n2)cc1` the figure was 35.4 µg/mL (≈ 127 µM); with `Cc1cccc(C(CC(=O)NCc2ccco2)c2ccccc2)c1O` (configuration not stated), greater than 50.3 µg/mL; with `CCN1C(=O)c2ccc(C(=O)Nc3ccc(O)cc3C)cc2C1=O`, greater than 48.7 µg/mL.
Compound `O=C(CN1CCCCC1)NNC(=O)c1ccc([N+](=O)[O-])cc1` displayed a solubility (kinetic) greater than 45.9 µg/mL.
With `CC(=O)Oc1c(C(C)C)cc(N(C(C)=O)c2ccccc2)cc1C(C)C` the figure was 41.5 µg/mL (≈ 117 µM); with `CC(=O)c1cccc(NC(=O)CO/N=C2/CCCc3nonc32)c1`, 45.7 µg/mL (≈ 139 µM).
The compound `C=CCNC(=S)N1CCN(S(=O)(=O)c2ccc(C)cc2)CC1` returned a solubility (kinetic) greater than 50.9 µg/mL.
With `COc1ccc(Cl)cc1NC(=O)COC(=O)c1ccc(Br)o1` the figure was 2.6 µg/mL (≈ 6.69 µM); with `CCCn1nc(C(=O)NC2CC2)c2ccccc2c1=O`, greater than 40.7 µg/mL.
With `O=C(NN1C(=O)C2C3C=CC(C3)C2C1=O)C(O)c1ccccc1` (configuration not stated) the figure was greater than 46.8 µg/mL.
The same measure for `CCCCNC(=O)N1CCN(C(c2ccccc2)c2ccccc2)CC1`: 5 µg/mL (≈ 14.2 µM); for `COc1cc2nc(Cl)nc(NCCO)c2cc1OC`: 24.7 µg/mL (≈ 87.1 µM); for `O=C(NC1CCCC1)C1CCN(S(=O)(=O)c2ccccc2)CC1`: 44.2 µg/mL (≈ 131 µM).
In turn, `O=C(CNc1cccc([N+](=O)[O-])c1)NCCCc1ccccc1` displayed a kinetic solubility of 8 µg/mL (≈ 25.5 µM).
The same measure for `COc1ccccc1C(=O)N1CCN(C(=O)Cc2ccccc2)CC1`: 43.2 µg/mL (≈ 128 µM); for `CNc1nc(N)c([N+](=O)[O-])c(N2CCCCCC2)n1`: 39.5 µg/mL (≈ 148 µM).
With `Cc1cc[n+](CC2OCc3ccccc3CO2)cc1.[Br-]` the figure was greater than 50.4 µg/mL.
The same measure for `Cl.O=C(O)CSc1nc(-c2ccccc2)c(-c2ccccc2)[nH]1`: greater than 52 µg/mL; for `Cc1ccc(CC(=O)O/N=C(\N)c2ccncc2)cc1`: 18.1 µg/mL (≈ 67.2 µM); for `O=C(NCC1CCCO1)c1ccccc1NS(=O)(=O)c1cccc([N+](=O)[O-])c1` (configuration not stated): greater than 60.8 µg/mL.
Take `NS(=O)(=O)c1ccc(CNC(=O)Cc2ccccc2[N+](=O)[O-])cc1`: the kinetic solubility is 50.1 µg/mL (≈ 143 µM).
With `CCCOc1cccc(C(=O)NCCNC(=O)c2ccccn2)c1` the figure was greater than 49.1 µg/mL.
On to `Cc1cccc(NC(=O)CCN2CCCCC2)c1.Cl`, for which the kinetic solubility was greater than 42.4 µg/mL.
The same measure for `Cc1ccc([N+](=O)[O-])cc1N`: 13.5 µg/mL (≈ 88.7 µM); for `Cc1cc(C)c2c3c(sc2n1)C(=O)N(c1ccccc1C)CC(=O)N3`: 25.5 µg/mL (≈ 72.6 µM); for `CSc1ccc(CN(C)C(=O)c2cc(=O)c3ccccc3o2)cc1`: greater than 50.9 µg/mL.
With `CC(NC(=O)CCCc1c[nH]c2ccccc12)c1ccc(F)cc1` (configuration not stated) the figure was 41.5 µg/mL (≈ 128 µM); with `CCn1nc(C(C)C(=O)O)c2ccccc2c1=O` (configuration not stated), greater than 36.9 µg/mL; with `COc1ccc(NC2CCCN(C(=O)c3cccnc3)C2)cc1` (configuration not stated), greater than 46.7 µg/mL.
With `COCCCN(CC(=O)O)S(=O)(=O)c1ccccc1` the figure was greater than 43.1 µg/mL; with `Cc1cc(C)c(S(=O)(=O)Nc2ccncc2)cc1C`, 19.2 µg/mL (≈ 69.5 µM); with `CCOC(=O)CNC(=O)CN1CCC(c2nc3ccccc3[nH]2)CC1`, greater than 51.7 µg/mL.
`CC12CC3CC(C)(C1)CC(C(=O)N1CCCC1)(C3)C2` yielded a kinetic solubility of 3.9 µg/mL (≈ 14.9 µM).
The same measure for `C=CCn1c(-c2ccc(Cl)cc2)cnc1SC(C)C(=O)NC(N)=O` (configuration not stated): 14.2 µg/mL (≈ 38.9 µM).
The same measure for `Cc1cc(C)n(CC(=O)NCc2ccccc2)c(=O)c1C#N`: 43.5 µg/mL (≈ 147 µM); for `O=C(c1ccccc1)N1CCCC(C(=O)N2CCN(c3ccccc3)CC2)C1` (configuration not stated): 46.8 µg/mL (≈ 124 µM).
As for `Cc1cc(C)cc(NC(=S)NC(=O)C2CC2)c1`, the solubility (kinetic) is 30 µg/mL (≈ 121 µM).
With `C#CCN(C)CCCOc1ccc(Cl)cc1Cl.Cl` the figure was 8.7 µg/mL.
With `O=C(O)C1C2CCC(C2)C1C(=O)NCCc1cccc(Cl)c1` (configuration not stated) the figure was greater than 48.3 µg/mL.
With `COc1ccc(NC(=O)COc2ccc3c(c2)CCC3)cc1S(N)(=O)=O` the figure was 15.9 µg/mL (≈ 42.2 µM).
In turn, `COCCN1CC(C(=O)NCc2ncccc2C)CCC1=O` (configuration not stated) had a kinetic solubility greater than 45.8 µg/mL.
With `COc1ccc(C(=O)NC(C)CCc2ccccc2)c(O)c1` (configuration not stated) the figure was 15.2 µg/mL (≈ 50.8 µM).
The same measure for `Cc1ccc(-c2nsc(SCC(=O)NCC3CCCO3)n2)cc1` (configuration not stated): greater than 52.4 µg/mL; for `Cc1cc(C)cc(C(=O)Nc2cccnc2)c1`: greater than 33.9 µg/mL; for `CCOC(=O)c1c(NC(=O)CN2CCCCC2)sc(C)c1C`: less than 0.3 µg/mL.
With `NC(=O)c1ccsc1NC(=O)Cc1ccc([N+](=O)[O-])cc1` the figure was 12 µg/mL (≈ 39.3 µM); with `CN1CC(=O)N(CC(=O)NC2CCCCC2)C1=O`, greater than 38 µg/mL.
In turn, `CC(C)CC(NC(=O)C1CCC(C)CC1)C(=O)NCc1ccco1` (configuration not stated) yielded a solubility (kinetic) of 25.2 µg/mL (≈ 75.3 µM).
With `CCCN1CCC(NCC(C)c2ccccc2)CC1` (configuration not stated) the figure was 38.8 µg/mL (≈ 149 µM); with `O=C(Nc1cc(Cl)c(Cl)cc1Cl)c1cccnc1`, 6.1 µg/mL (≈ 20.2 µM); with `COc1cc(OC)c(C(=O)O/N=C(\N)c2ccc(C)cc2)cc1OC`, greater than 51.7 µg/mL.
The same measure for `COC(=O)C1CCN(C(=O)/C=C/c2ccc3c(c2)OCO3)CC1`: 34 µg/mL (≈ 107 µM); for `NC(=O)c1ccc(NC(=O)COC(=O)CCSc2ccccc2)cc1`: 15.1 µg/mL (≈ 42.1 µM); for `Cl.c1cc(CNC23CC4CC(CC(C4)C2)C3)ccn1`: greater than 47.3 µg/mL.
The same measure for `COc1ccccc1NS(=O)(=O)c1ccc(C)c(C(=O)Nc2cc(C)on2)c1`: 22.4 µg/mL (≈ 55.8 µM).
The compound `O=C1CC2(CCN(C(=O)c3cccc(F)c3)CC2)Oc2ccccc21` had a solubility (kinetic) greater than 50.9 µg/mL.
The same measure for `COc1cccc(NC(=S)N2CCN(C)CC2)c1`: greater than 39.8 µg/mL; for `COC(=O)c1cnc(N2CCOCC2)nc1C(F)(F)F`: 35.3 µg/mL (≈ 121 µM); for `CCCCn1c(=O)[nH]c(=O)c2c1nc(-c1ccccn1)n2CC`: 18.7 µg/mL (≈ 59.7 µM).
The same measure for `Cc1ccc(CNC(=O)C(C)C2Sc3ccccc3NC2=O)cc1` (configuration not stated): 1.6 µg/mL (≈ 4.7 µM); for `CCCCN(C(=O)c1cccc(-c2ccc(OC(C)=O)cc2)c1)c1c(N)n(CCC)c(=O)[nH]c1=O`: 8.5 µg/mL (≈ 17.8 µM).
The same measure for `Cc1ccc(NC(=O)c2ccc3nccnc3c2)c(C)c1`: greater than 41.6 µg/mL.
In turn, `COCCn1c(C)cc(C(=O)CN2c3cccc4cccc(c34)S2(=O)=O)c1C` came in with a solubility (kinetic) of 3.5 µg/mL (≈ 8.78 µM).
The same measure for `CCOC(=O)c1ccc(NC(=O)NCCc2cnc[nH]2)cc1`: greater than 45.3 µg/mL.
With `CCOc1ccc(NS(=O)(=O)c2cc(C(=O)NCCN3CCOCC3)ccc2C)cc1` the figure was 66.4 µg/mL (≈ 148 µM); with `CCOC(=O)c1sc(NC(=O)c2ccc(=O)[nH]c2)nc1C`, 7.3 µg/mL (≈ 23.8 µM).
The same measure for `CCCn1cnc2c(oc3ccccc32)c1=O`: greater than 34.2 µg/mL; for `O=C(NC12CC3CC(CC(C3)C1)C2)c1c(Cl)cccc1Cl`: less than 0.7 µg/mL; for `O=C(CCCc1ccccc1)Nc1cccc([N+](=O)[O-])c1`: 26.4 µg/mL (≈ 92.9 µM).
With `O=S(=O)(NCCc1ccccc1)c1ccc(F)cc1`, the kinetic solubility was found to be 40.9 µg/mL (≈ 146 µM).
The same measure for `O=C(COC(=O)[C@H](Cc1ccccc1)NC(=O)c1ccco1)Nc1ccccc1OC(F)F`: 64 µg/mL (≈ 140 µM); for `CC1CCC(NC(=O)CC(NC(N)=O)c2ccccc2Cl)CC1` (configuration not stated): 46.6 µg/mL (≈ 138 µM); for `CC(C)(CNc1ccc([N+](=O)[O-])cc1Cl)N1CCOCC1`: 1.4 µg/mL (≈ 4.46 µM).

Source of the values: PubChem BioAssay AID1996.
